Here are results for 52 compounds from paper doi:10.1101/2021.10.07.463234v2 (biorxiv, 2021).

Each structure is given as a SMILES string. pIC50: −log10 of the molar value. Values joined by “and” are separate entries in the source; they are usually repeats but may differ in a detail not shown here. Identical values can stand only once. Counter-ions that a name gives are not always drawn. Like-named read-outs stand apart in the source and are kept apart here.

Broadly, the inhibition is the drop in the measured response relative to a control, in per cent. Usually %inhibition stands for the relative decrease from the control value, in per cent. The low end stands for a weak effect, the high end for a strong effect. As a reminder, the pIC50 is −log10 of the IC50, conventionally taken in molar units. Lower therefore signals a high IC50.

Assay [1] addresses T1, SARS-CoV-2 Mac1 (Severe acute respiratory syndrome coronavirus 2, UniProt P0DTD1). As to the kind of experiment: biochemical. The settings on record: read-out: %inhibition.
Assay [2] has as its target T1, SARS-CoV-2 Mac1. Description: biochemical. To be noted: for inhibition at 100 µM: read-out: %inhibition; for %inhibition: 100 µM, inhibitor.
For assay [3], the target named is T1, SARS-CoV-2 Mac1. Description: biochemical.
The target of another assay is human MacroD2 (Homo sapiens, UniProt A1Z1Q3). Description: ADPr-Glo luminescence ADP-ribosylhydrolase assay. Type of assay: biochemical.
Chain of human MacroD2 (A1Z1Q3 whole entry): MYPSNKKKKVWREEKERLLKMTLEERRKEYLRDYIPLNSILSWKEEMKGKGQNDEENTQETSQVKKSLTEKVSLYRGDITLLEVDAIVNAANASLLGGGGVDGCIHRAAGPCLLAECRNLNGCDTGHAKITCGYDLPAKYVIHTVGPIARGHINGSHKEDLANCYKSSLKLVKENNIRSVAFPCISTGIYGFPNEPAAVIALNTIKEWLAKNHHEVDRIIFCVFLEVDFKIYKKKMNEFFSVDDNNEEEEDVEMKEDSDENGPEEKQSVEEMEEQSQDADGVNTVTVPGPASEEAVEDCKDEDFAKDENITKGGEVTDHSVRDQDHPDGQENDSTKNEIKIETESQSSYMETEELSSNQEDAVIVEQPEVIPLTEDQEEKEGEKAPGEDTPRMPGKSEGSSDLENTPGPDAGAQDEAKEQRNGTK

Turning to `Nc1nc(Cl)nc2c1ncn2[C@@H]1O[C@H](COP(=O)(O)OP(=O)(O)OP(=O)(O)O)[C@H](O)C1O` (stereo partly drawn) [2-Chloroadenosine triphosphate tetrasodium], at SARS-CoV-2 Mac1 [1], the inhibition at 100 µM was determined as 57%.
Take `NNCc1cccc(O)c1` [3-Hydroxybenzylhydrazine dihydrochloride]: the inhibition at 100 µM at SARS-CoV-2 Mac1 [1] is 32%.
Same read-out and setting: as for `Cc1cccc(C#Cc2ccccc2)n1` [6-Methyl-2-(phenylethynyl)pyridine hydrochloride], the figure is 45%.
As to `Oc1ncnc2[nH]ncc12` [Allopurinol], the inhibition at 100 µM is 0% at SARS-CoV-2 Mac1 [2] and 37% at SARS-CoV-2 Mac1 [1].
For `O=C1c2c(O)ccc(O)c2C(=O)c2c(NCCNCCO)ccc(NCCNCCO)c21` [Mitoxantrone], the inhibition at 100 µM on SARS-CoV-2 Mac1 [1] turned out to be 53%.
Same read-out and setting: the figure for `O=C(Nc1cc(C(=O)Nc2ccc(S(=O)(=O)O)cc2S(=O)(=O)O)cc(C(=O)Nc2ccc(S(=O)(=O)O)cc2S(=O)(=O)O)c1)Nc1cc(C(=O)Nc2ccc(S(=O)(=O)O)cc2S(=O)(=O)O)cc(C(=O)Nc2ccc(S(=O)(=O)O)cc2S(=O)(=O)O)c1` [NF449 octasodium salt] is 54%.
As to `COc1cc2c(cc1OC)[C@@H](c1ccccc1)CN(C)CC2` [R(-)-SCH-12679 maleate], at SARS-CoV-2 Mac1 [1], the inhibition at 100 µM was determined as 96%.
Same read-out and setting: the figure for `Nc1c(S(=O)(=O)O)cc(Nc2ccc(Nc3nc(Cl)nc(Nc4cccc(S(=O)(=O)O)c4)n3)c(S(=O)(=O)O)c2)c2c1C(=O)c1ccccc1C2=O` [Reactive Blue 2] is 100%.
The same measure, in the same setting: as for `Nc1nc(SCc2ccc([N+](=O)[O-])cc2)c2ncn([C@@H]3O[C@H](CO)[C@@H](O)[C@H]3O)c2n1` [S-(4-Nitrobenzyl)-6-thioguanosine], the figure is 35%; as for `Cc1ccc(O)c(N=Nc2ccccc2)n1` [SIB 1757], 79%.
On the same count and under the same terms, the figure for `Cc1ccc(C(=O)Nc2ccc(S(=O)(=O)O)c3cc(S(=O)(=O)O)cc(S(=O)(=O)O)c23)cc1NC(=O)c1cccc(NC(=O)Nc2cccc(C(=O)Nc3cc(C(=O)Nc4ccc(S(=O)(=O)O)c5cc(S(=O)(=O)O)cc(S(=O)(=O)O)c45)ccc3C)c2)c1` [Suramin hexasodium] is 86%; for `N#CC(C#N)=Cc1ccc(O)c(O)c1` [Tyrphostin 23] it is 52%; for `N#C/C(=C\c1ccc(O)c(O)c1)C(=O)NCc1ccccc1` [Tyrphostin AG 490] it is 79%.
As to `N#C/C(=C\c1ccc(O)c(O)c1)C(=O)NCCCNC(=O)/C(C#N)=C/c1ccc(O)c(O)c1` [Tyrphostin AG 537], the inhibition at 100 µM at SARS-CoV-2 Mac1 [1] turned out to be 54%.
On to `CC1=C(/C=C/C(C)=C/C=C/C(C)=C/CO)C(C)(C)CCC1` [Vitamin A], for which, on SARS-CoV-2 Mac1 [2], the inhibition at 100 µM was found to be 2.61%.
Turning to `O=C1O[C@H]([C@@H](O)CO)C(O)=C1O` [Vitamin C], the “%inhibition” value on SARS-CoV-2 Mac1 [2] amounted to 15.62%.
Consider `C=C1CC[C@H](O)C/C1=C/C=C1\CCC[C@]2(C)[C@@H]([C@H](C)/C=C/[C@H](C)C(C)C)CC[C@@H]12` [Vitamin D2], for which the inhibition at 100 µM on SARS-CoV-2 Mac1 [2] is 0%.
On the same count and under the same terms, the figure for `CC(=O)Oc1c(C)c(C)c2c(c1C)CCC(C)(CCC[C@H](C)CCC[C@H](C)CCCC(C)C)O2` (stereo partly drawn) [Vitamin E Acetate] is 0%.
Still for that read-out and setting: as for `CC1=C(C/C=C(\C)CCC[C@H](C)CCC[C@H](C)CCCC(C)C)C(=O)c2ccccc2C1=O` [Vitamin K1], the figure is 19.5%; as for `OCC(CO)N[C@H]1C[C@](O)(CO)[C@@H](O)[C@H](O)[C@H]1O` [Voglibose], 7.63%; as for `CC[C@@H]1C(=O)N(C)c2cnc(Nc3ccc(C(=O)N[C@H]4CC[C@H](N5CCN(CC6CC6)CC5)CC4)cc3OC)nc2N1C(C)C` [Volasertib (BI 6727)], 0%.
As to `CNCc1cc(-c2ccccc2F)n(S(=O)(=O)c2cccnc2)c1` [Vonoprazan Fumarate (TAK-438)], the inhibition at 100 µM on SARS-CoV-2 Mac1 [2] came to 0%.
Take `CCOC(=O)N[C@@H]1CC[C@@H]2[C@@H](C1)C[C@H]1C(=O)O[C@H](C)[C@H]1[C@H]2/C=C/c1ccc(-c2cccc(F)c2)cn1` [Vorapaxar]: on SARS-CoV-2 Mac1 [2], the inhibition at 100 µM was 0%.
Take `C[C@@H](c1ncncc1F)[C@](O)(Cn1cncn1)c1ccc(F)cc1F` [Voriconazole]: the inhibition at 100 µM at SARS-CoV-2 Mac1 [2] came out at 0%.
With `O=C(CCCCCCC(=O)Nc1ccccc1)NO` [Vorinostat (SAHA, MK0683)], the inhibition at 100 µM at SARS-CoV-2 Mac1 [2] came to 0%.
On to `Cc1ccc(Sc2ccccc2N2CCNCC2)c(C)c1` [Vortioxetine (Lu AA21004) HBr], for which the “%inhibition” value at SARS-CoV-2 Mac1 [2] was 12.23%.
Same read-out and setting: as for `Cc1ccc(Sc2ccccc2N2CCNCC2)c(C)c1` [Vortioxetine], the figure is 4.926%.
On to `Cc1cccc(C)c1NC1=NCCCS1` [Xylazine HCl], for which the inhibition at 100 µM at SARS-CoV-2 Mac1 [2] is 25.3%.
On the same count and under the same terms, the figure for `OC[C@@H](O)[C@H](O)[C@@H](O)CO` [Xylitol] is 0%; for `Cc1cc(C(C)(C)C)cc(C)c1CC1=NCCN1` [Xylometazoline HCl] it is 9.99%.
Same read-out and setting: the figure for `O=C[C@H](O)[C@@H](O)[C@H](O)CO` [Xylose] is 0%; for `COCC[n+]1c2c(n(Cc3cnccn3)c1C)C(=O)c1ccccc1C2=O` [YM155 (Sepantronium Bromide)] it is 0%.
On the same count and under the same terms, as for `COC(=O)[C@@H]1[C@H]2C[C@H]3c4[nH]c5ccccc5c4CCN3C[C@@H]2CC[C@@H]1O` [Yohimbine HCl], the figure is 0%; as for `COc1cc(C(=O)NS(=O)(=O)c2ccccc2C)ccc1Cc1cn(C)c2ccc(NC(=O)OC3CCCC3)cc12` [Zafirlukast], 0%; as for `Nc1ccn([C@H]2CC[C@@H](CO)O2)c(=O)n1` [Zalcitabine], 19.2%.
Take `CC(C(=O)O)c1ccc2c(c1)CC(=O)c1ccccc1S2` (stereo not drawn) [Zaltoprofen]: the inhibition at 100 µM at SARS-CoV-2 Mac1 [2] was 16.4%.
Still for that read-out and setting: the figure for `CC(=O)N[C@H]1[C@H]([C@H](O)[C@H](O)CO)OC(C(=O)O)=C[C@@H]1NC(=N)N` [Zanamivir] is 0%.
On the same count and under the same terms, the figure for `COc1nc(C)cnc1NS(=O)(=O)c1cccnc1-c1ccc(-c2nnco2)cc1` [Zibotentan (ZD4054)] is 7.65%.
Turning to `Cc1cn([C@H]2C[C@H](N=[N+]=[N-])[C@@H](CO)O2)c(=O)[nH]c1=O` [Zidovudine], the “%inhibition” value on SARS-CoV-2 Mac1 [2] turned out to be 8.703%.
As to `CC(c1cc2ccccc2s1)N(O)C(N)=O` (stereo not drawn) [Zileuton], the inhibition at 100 µM on SARS-CoV-2 Mac1 [2] amounted to 0%.
The same measure, in the same setting: as for `O=C1Cc2cc(CCN3CCN(c4nsc5ccccc45)CC3)c(Cl)cc2N1` [Ziprasidone HCl], the figure is 0%.
Still for that read-out and setting: the figure for `C[C@H](CSC(=O)c1ccccc1)C(=O)N1C[C@@H](Sc2ccccc2)C[C@H]1C(=O)O` [Zofenopril calcium] is 10.7%; for `CN(C)CCc1c[nH]c2ccc(C[C@H]3COC(=O)N3)cc12` [Zolmitriptan] it is 0%.
Still for that read-out and setting: as for `NS(=O)(=O)Cc1noc2ccccc12` [Zonisamide], the figure is 0%; as for `O[C@@H](COc1cccc2ncccc12)CN1CCN(C2c3ccccc3[C@@H]3[C@H](c4ccccc42)C3(F)F)CC1` (stereo partly drawn) [Zosuquidar (LY335979) 3HCl], 0%.
On to `CCN1CCN(Cc2ccc(Nc3ncc(F)c(-c4cc(F)c5nc(C)n(C(C)C)c5c4)n3)nc2)CC1` [abemaciclib (LY2835219)], for which the “%inhibition” value on SARS-CoV-2 Mac1 [2] came out at 4.001%.
For `Cc1nc(Nc2ncc(C(=O)Nc3c(C)cccc3Cl)s2)cc(N2CCN(CCO)CC2)n1` [dasatinib], on SARS-CoV-2 Mac1 [2], the “%inhibition” value was 66.44% and 68.55%; the inhibition at 100 µM was 78.6%. Moreover, on SARS-CoV-2 Mac1 [3], the pIC50 was 4.24 to 4.43. The pIC50 at human MacroD2 is below 2.70.
Consider `NNc1nnc(NN)c2ccccc12` [dihydralazine], for which the results for the pIC50 at SARS-CoV-2 Mac1 [3] and at human MacroD2 were 3.12 to 3.31 and 2.74 to 3.30, respectively.
In the case of `O[C@H]1[C@H](O)[C@@H](O)[C@H](O)[C@@H](O)[C@H]1O` [i-Inositol], the inhibition at 100 µM at SARS-CoV-2 Mac1 [2] worked out at 0%.
Still for that read-out and setting: as for `CC[C@H](C)[C@H](N)C(=O)O` [isoleucine], the figure is 0%.
Turning to `COc1cc2nccc(Oc3ccc(NC(=O)NC4CC4)c(Cl)c3)c2cc1C(N)=O` [lenvatinib Mesylate], on SARS-CoV-2 Mac1 [2], the “%inhibition” value stood at 0%.
As for `O=C1[C@@H]2[C@H]3CC[C@H](C3)[C@@H]2C(=O)N1C[C@@H]1CCCC[C@H]1CN1CCN(c2nsc3ccccc23)CC1` [lurasidone], at SARS-CoV-2 Mac1 [2], the inhibition at 100 µM turned out to be 0%.
